# Assay results from patent publication US8889112B2, “Ophthalmic formulations including selective alpha 1 antagonists” (Ocularis Pharma, LLC, priority 1999, dated 2014).
# “And” between values parts separate entries of the source, which are not always exact repeats. Identical values can stand only once. Counter-ions that a name gives are not always drawn. Like-named read-outs stand apart in the source and are kept apart here.
# Assays:
# human eye [1] = conditions: cited from earlier work
# human eye [2] = assay: Effect of phentolamine 0.35% on pupil diameter in dim and bright light (Table 2); type: in vivo
# human eye [3] = conditions: for Duration of effect: single administration per day, eye drop or drop on soft contact lens; for Effectiveness in reducing pupil dilation in dim light: topical, phenoxybenzamine, prazosin, tolamine 0.1% to 5%, labetalol S,S and S,R isomers 0.1% to 2%
# Experimental: A preferred concentration of about 1 to about 5 milligrams of active agent per cc of total formulation volume in an embodiment may be administered by placing a single drop on a moist soft contact lens, and inserting the lens for about 15 minutes to about 45 minutes at one time per day. […] The drop may be administered in a one to five milligram per cc concentration directly to the eye as a recommended daily or BID dosing according to an embodiment of the present invention.
# A 5 mg/ml vial of phentolamine was diluted in an artificial tear formulation to approximately 6.0 cc of solution.
# Labetalol, a potent beta adrenergic receptor antagonist, consists of four isomers, two of which have some alpha 1 antagonist activity.
# human eye [4] = assay: Effect of phentolamine eye drops on visual acuity in dim light (Table 3); type: in vivo; conditions: one line per subject
# Description: The results illustrate the benefit that is derived from reducing pupil diameter by 1 mm or more and/or pupil area by 20% or more in dim light conditions pursuant to an embodiment. In this regard, a significant increase in spherical aberrations is typically found per each one millimeter of increase in pupil size diameter above 5 mm. These aberrations generally increase as a function of severity of the refractive error, particularly increases in the myopic spherical equivalent of refractive error. Coma may increase, as well as other higher order aberrations, as pupil size diameter increases, again especially as refractive error increases. Thus, a reduction in pupil diameter by 1 mm or more and/or pupil area by 20% or more can effectively act to improve vision in dim light conditions. As previously discussed, the present invention contemplates the use of a single active agent, preferably an alpha 1a selective antagonist, that can optimize pupil light reflex while minimizing, if not eliminating, redness. [table]
# human eye [5] = assay: Effect of alpha adrenergic receptor antagonists on pupil dilation (Table 1, patients); type: in vivo; conditions: for Effect on pupil diam. in darkness (mm): pupil diameter after drug, from 7.5 mm before, topical, 5 mg/ml (phentolamine 3.3 mg/ml via soft contact lens for 30 minutes)
# Description: However, only the imidazolines obtain the desired reduction in dilation without causing excessive redness of the eye. In addition, the present invention in an embodiment provides a sub-class of alpha antagonists that can act as a sole active component in an ophthalmic medication to effectively reduce pupil light reflex while providing minimal, if any, redness response upon application thereof to the eye. In an embodiment, the sub-class of alpha antagonists includes alpha 1 selective antagonists, including alpha 1a selective antagonists, such as tamsulosin.
# [6] = pupil diameter after 3.3 mg/cc, single drop on soft contact lens placed for 30 minutes, one line per subject
# [7] = pupil diameter before drug (baseline), one line per subject
# [8] = duration of effect on pupil, 5 mg/ml (phentolamine 3.3 mg/ml via soft contact lens)
compound,measurement,setting,value
CC[C@@H]1C(=O)OC[C@@H]1Cc1cncn1C [pilocarpine],Duration of miotic effect,human eye [1]; in vivo,only a few hours
same,Side effects,human eye [1]; in vivo,"brow ache, ciliary muscle contraction and pseudo myopia, excessive dimness when first applied"
same,Pupil size when first applied,human eye [1]; usually,less than 2 mm
Cc1ccc(N(CC2=NCCN2)c2cccc(O)c2)cc1 [Phentolamine],Bright Light Post mm,human eye [2]; [6],3.0 mm (2×) and 2.5 mm (3×)
same,Dim Light Post mm,human eye [2]; [6],4.0 mm (3×) and 3.0 mm and 3.5 mm
same,Bright Light Pre mm,human eye [2]; [7],4.0 mm and 3.0 mm (3×) and 3.5 mm
same,Dim Light Pre mm,human eye [2]; [7],7.5 mm (2×) and 3.5 mm and 4.0 mm and 7.0 mm
same,halos reduced,"human eye [2]; subject, post drug",70% reduced; depth
same,Redness / vasodilation of the eye,human eye [3]; in vivo,"very slight, transient redness"
same,Duration of effect,human eye [3],20 to 24 h
same,Duration of effect,human eye [3]; listed as phentolamine,20 to 24 h
same,Pupil Diameter in Dim Light Post-Drug mm,human eye [4]; after phentolamine eye drops,6.9 mm (2×) and 7.1 mm (2×) and 5.9 mm (2×) and 7.5 mm and 6.5 mm and 7.4 mm
same,Pupil Diameter in Dim Light Pre-Drug mm,human eye [4]; before drug (baseline),7.7 mm and 8.5 mm and 7.9 mm (3×) and 7.8 mm (2×) and 8.2 mm (2×)
same,Pupil Diameter Change mm,"human eye [4]; reduction in dim light, pre minus post",0.8 mm (2×) and 1.4 mm (2×) and 2.0 mm and 0.9 mm and 0.4 mm and 1.1 mm and 1.9 mm
same,Pupil Area Change %,human eye [4]; reduction of pupil area in dim light,20% and 30% and 44% and 22% and 10% and 25% and 32% and 19% and 43%
same,Dim Light Contrast Post-Drug,human eye [4]; visual acuity after phentolamine eye drops,20/25 and 20/22 and 20/20 and 20/24 and 20/38 and 20/21 (2×) and 20/32 and 20/50
same,Dim Light Contrast Pre-Drug,human eye [4]; visual acuity before drug (baseline),20/29 (2×) and 20/35 and 20/32 (2×) and 20/63 and 20/38 and 20/40 and 20/53
same,Duration,human eye [5]; [8],20 to 40 h
same,Effect on pupil diam. in darkness (mm),human eye [5],7.5 -> 4.0 mm
CC(COc1ccccc1)N(CCCl)Cc1ccccc1 (stereo not drawn) [Phenoxybenzamine],Redness / vasodilation of the eye,human eye [3]; topical application as only active compound,induce much more vasodilation and congestion
same,Redness / vasodilation of the eye,"human eye [3]; topical application as only active compound, listed as phenoxybenzamine",unacceptably high level of redness
same,Effectiveness in reducing pupil dilation in dim light,human eye [3],have not been as effective as phentolamine
same,Duration (hrs),human eye [5]; [8],≧20 hrs
same,Effect on pupil diam. in darkness (mm),human eye [5],7.5 -> 5.5 mm
"Cc1ccccc1N1CCN(CCc2nnc3n2CCCC3)CC1 [Dapiprazole, 5,6,7,8 tetrahydro-3-[2-(4-o,tolyl-1-piperazinyl)ethyl]-8-triazolo[4,3-a]pyridine hydrochloride]",Redness and chemosis upon instillation,human eye [1]; 0.5% solution,substantial increased redness and conjunctival chemosis
same,Effectiveness in reducing pupil size in dim light,"human eye [1]; topical, compared to phentolamine and phenoxybenzamine, U.S. Pat. No. 6,515,006",not as effective
same,Redness / vasodilation of the eye,human eye [3]; in vivo,unacceptably high levels of eye redness with severe blood vessel dilation
same,Effectiveness in reducing pupil dilation in dim light,human eye [3],minimal if any clinically significant effect
same,Duration,human eye [5]; [8],5 to 12 h
same,Effect on pupil diam. in darkness (mm),human eye [5],7.5 -> 7 mm
CC(CCc1ccccc1)NCC(O)c1ccc(O)c(C(N)=O)c1 (stereo not drawn) [Labetalol],Effectiveness in reducing pupil dilation in dim light,human eye [3],modestly effective
Tolamine,Effectiveness in reducing pupil dilation in dim light,human eye [3],slight pupillary reduction in dilation in dim light but appears to be less effective than phentolamine
same,Duration,human eye [5]; [8],5 to 12 h
same,Effect on pupil diam. in darkness (mm),human eye [5],7.5 -> 6 mm
COc1cc2nc(N3CCN(C(=O)c4ccco4)CC3)nc(N)c2cc1OC [Prazosin],Duration,human eye [5]; [8],5 to 12 h
same,Effect on pupil diam. in darkness (mm),human eye [5],7.5 -> 6 mm
